These results are taken from paper PMC7827406, “Structure–Activity Relationship (SAR) Study of Spautin-1 to Entail the Discovery of Novel NEK4 Inhibitors” (International Journal of Molecular Sciences, 2021).

What all share (test): biochemical
Design in all cases: Eurofins KinaseProfiler full panel at Km ATP, residual kinase activity (%) relative to DMSO

The target in test [1] is T1, Abl (H396P) (h) (Homo sapiens, UniProt P00519, H396P).
T1 construct: gene ABL1
An outline of the steps: (§1)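 Compounds screened at 10 µM in radiometric kinase activity assays at Km ATP, reported as remaining kinase activity (%). A KINOMEscan competition-binding screen at 10 µM measured DNA-tagged kinase retained on immobilized active-site ligand by qPCR.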

Test [2] has as its target T2, TrkC(h) (Homo sapiens, UniProt Q16288).
T2 construct: gene NTRK3
In short, it runs like this: as §1

For test [3], the target named is RIPK2(h) (Homo sapiens, UniProt O43353). An outline of the steps:
as §1

Test [4] has as its target STK39(h) (Homo sapiens, UniProt Q9UEW8). An outline of the steps:
as §1

For test [5], the target named is DAPK2(h) (Homo sapiens, UniProt Q9UIK4). An outline of the steps:
as §1

Test [6] addresses T3, NEK9(h) (Homo sapiens, UniProt Q8TD19).
T3 sequence (Q8TD19 1-979): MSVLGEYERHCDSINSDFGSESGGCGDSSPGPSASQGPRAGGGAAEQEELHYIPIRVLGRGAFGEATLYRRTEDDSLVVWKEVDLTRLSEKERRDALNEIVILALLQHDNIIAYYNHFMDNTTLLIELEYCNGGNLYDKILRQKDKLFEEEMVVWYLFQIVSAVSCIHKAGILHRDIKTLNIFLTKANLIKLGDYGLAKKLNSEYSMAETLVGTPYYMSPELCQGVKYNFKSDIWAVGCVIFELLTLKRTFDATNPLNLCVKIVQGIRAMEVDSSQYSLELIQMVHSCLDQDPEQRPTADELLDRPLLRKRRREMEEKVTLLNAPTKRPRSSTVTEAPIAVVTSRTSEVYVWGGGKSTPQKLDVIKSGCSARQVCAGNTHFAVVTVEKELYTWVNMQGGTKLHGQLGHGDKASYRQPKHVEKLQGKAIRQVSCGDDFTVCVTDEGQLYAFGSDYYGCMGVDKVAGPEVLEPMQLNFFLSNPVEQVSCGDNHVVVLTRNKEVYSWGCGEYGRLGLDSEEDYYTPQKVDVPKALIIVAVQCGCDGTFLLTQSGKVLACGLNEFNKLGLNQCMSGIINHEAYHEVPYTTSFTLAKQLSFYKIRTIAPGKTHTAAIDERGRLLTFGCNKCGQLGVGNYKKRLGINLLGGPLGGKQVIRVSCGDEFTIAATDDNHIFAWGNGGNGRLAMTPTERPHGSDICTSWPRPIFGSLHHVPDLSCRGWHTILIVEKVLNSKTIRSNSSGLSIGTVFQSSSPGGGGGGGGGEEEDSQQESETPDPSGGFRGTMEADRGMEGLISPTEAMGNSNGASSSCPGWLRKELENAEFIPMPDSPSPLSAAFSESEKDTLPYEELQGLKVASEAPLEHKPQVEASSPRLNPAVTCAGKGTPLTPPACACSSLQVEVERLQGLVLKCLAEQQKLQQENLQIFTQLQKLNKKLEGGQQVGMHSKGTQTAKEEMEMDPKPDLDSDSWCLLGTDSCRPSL
In short, it runs like this: as §1

In test [7] the target is CDKL1(h) (Homo sapiens, UniProt Q00532). An outline of the steps: as §1
Chain of CDKL1(h) (Q00532 whole entry): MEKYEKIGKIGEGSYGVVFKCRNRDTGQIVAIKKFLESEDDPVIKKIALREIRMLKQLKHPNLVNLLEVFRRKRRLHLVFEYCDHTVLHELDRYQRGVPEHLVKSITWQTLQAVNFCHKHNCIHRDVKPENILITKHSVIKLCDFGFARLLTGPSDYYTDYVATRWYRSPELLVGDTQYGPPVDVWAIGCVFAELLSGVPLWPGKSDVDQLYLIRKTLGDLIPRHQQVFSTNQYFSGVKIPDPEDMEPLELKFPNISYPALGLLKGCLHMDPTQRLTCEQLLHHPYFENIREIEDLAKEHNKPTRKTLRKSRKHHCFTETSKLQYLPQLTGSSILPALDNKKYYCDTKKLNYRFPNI
Test [8] addresses T4, PKBα(h) (Homo sapiens, UniProt P31749).
T4 construct: gene AKT1
In short, it runs like this:
as §1

The mark [9] stands for this setting: read-out: Residual activity (%) 5at.
Where [10] appears, read: read-out: Residual activity (%) 5ay.
Setting [11] is: read-out: Residual activity (%) 5as.
The mark [12] stands for this setting: read-out: Residual activity (%) Spautin-1 5aa.

Like-named read-outs stand apart in the source and are kept apart here.

T2 sequence (Q16288 whole entry): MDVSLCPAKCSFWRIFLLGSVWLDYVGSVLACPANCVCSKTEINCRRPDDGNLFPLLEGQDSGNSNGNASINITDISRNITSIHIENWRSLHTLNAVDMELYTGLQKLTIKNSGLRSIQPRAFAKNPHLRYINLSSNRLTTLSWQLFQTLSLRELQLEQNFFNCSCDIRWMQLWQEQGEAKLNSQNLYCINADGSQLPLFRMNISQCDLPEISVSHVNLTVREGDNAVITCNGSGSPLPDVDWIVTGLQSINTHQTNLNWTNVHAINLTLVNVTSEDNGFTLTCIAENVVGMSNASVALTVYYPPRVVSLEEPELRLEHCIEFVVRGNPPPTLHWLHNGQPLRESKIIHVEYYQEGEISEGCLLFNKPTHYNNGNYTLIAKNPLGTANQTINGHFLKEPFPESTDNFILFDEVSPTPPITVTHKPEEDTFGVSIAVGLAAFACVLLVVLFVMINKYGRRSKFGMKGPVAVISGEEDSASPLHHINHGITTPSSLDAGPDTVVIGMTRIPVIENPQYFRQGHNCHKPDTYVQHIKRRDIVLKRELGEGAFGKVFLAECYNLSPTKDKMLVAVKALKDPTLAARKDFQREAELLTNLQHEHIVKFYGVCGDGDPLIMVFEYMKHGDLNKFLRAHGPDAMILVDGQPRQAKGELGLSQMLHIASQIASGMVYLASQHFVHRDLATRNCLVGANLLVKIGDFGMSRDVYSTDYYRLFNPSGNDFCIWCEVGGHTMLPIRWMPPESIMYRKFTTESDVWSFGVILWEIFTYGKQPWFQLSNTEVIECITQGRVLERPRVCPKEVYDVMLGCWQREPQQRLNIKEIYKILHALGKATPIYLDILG
Chain of DAPK2(h) (Q9UIK4 whole entry): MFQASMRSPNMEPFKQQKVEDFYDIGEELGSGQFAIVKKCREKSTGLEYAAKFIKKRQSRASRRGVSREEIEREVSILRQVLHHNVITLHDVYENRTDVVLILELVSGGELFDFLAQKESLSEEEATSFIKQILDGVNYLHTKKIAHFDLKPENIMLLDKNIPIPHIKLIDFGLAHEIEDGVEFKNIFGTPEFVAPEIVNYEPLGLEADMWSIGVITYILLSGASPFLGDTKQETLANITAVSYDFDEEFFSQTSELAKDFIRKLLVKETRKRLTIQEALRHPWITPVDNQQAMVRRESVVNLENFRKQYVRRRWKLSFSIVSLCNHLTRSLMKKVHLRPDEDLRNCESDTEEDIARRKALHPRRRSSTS
Chain of RIPK2(h) (O43353 whole entry): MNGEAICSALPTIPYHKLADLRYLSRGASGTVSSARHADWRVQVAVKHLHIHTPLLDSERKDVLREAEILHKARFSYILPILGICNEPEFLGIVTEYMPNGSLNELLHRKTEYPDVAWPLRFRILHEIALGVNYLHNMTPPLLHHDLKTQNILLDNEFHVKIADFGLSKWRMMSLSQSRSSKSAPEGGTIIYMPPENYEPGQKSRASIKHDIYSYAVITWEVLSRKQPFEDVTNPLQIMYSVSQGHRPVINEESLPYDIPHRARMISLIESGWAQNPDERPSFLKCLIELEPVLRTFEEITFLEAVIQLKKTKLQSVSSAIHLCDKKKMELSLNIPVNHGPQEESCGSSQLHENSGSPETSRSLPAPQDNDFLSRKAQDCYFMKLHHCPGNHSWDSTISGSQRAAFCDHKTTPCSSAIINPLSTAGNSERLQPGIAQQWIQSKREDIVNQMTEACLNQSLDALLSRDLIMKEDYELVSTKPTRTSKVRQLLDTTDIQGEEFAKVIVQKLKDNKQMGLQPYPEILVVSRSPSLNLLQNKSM
T4 sequence (P31749 whole entry): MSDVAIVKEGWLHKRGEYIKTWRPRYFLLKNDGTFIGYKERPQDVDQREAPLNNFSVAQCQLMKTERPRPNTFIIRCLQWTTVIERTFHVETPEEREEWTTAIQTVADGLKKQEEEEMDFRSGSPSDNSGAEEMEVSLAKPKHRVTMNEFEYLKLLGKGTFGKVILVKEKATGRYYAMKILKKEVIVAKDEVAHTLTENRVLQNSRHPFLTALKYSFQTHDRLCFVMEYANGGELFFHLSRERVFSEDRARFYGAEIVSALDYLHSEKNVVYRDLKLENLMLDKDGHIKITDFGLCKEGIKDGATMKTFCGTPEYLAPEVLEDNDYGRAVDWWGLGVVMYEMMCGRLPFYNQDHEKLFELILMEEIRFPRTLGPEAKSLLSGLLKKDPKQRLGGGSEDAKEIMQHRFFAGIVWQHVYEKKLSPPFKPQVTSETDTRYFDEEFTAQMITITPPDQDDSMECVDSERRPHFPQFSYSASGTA

As to `Fc1ccc2ncnc(NCCc3ccc(Cl)cc3)c2c1` [5at, N-[2-(4-Chlorophenyl)Ethyl]-6-Fluoro-4-Quinazolinamine], the remaining activity at 10 µM is 80% in test [1] (setting [9]); 97% in test [2] (setting [9]); 86% in test [3] (setting [9]); 91% in test [4] (setting [9]); 101% in test [5] (setting [9]); 92% in test [6] (setting [9]). Also, the remaining activity at 10 µM in test [7] (setting [9]) came to 111%; in test [8] (setting [9]), 89%.

In the case of `COc1ccc2ncnc(Nc3cccc(F)c3)c2c1` [5ay, N-(3-Fluorophenyl)-6-Methoxy-4-Quinazolinamine], the remaining activity at 10 µM in test [1] (setting [10]) stood at 76%; in test [2] (setting [10]), 114%; in test [3] (setting [10]), 22%; in test [4] (setting [10]) it was 114%; in test [5] (setting [10]) it was 91%; in test [6] (setting [10]) it was 92%. Moreover, the remaining activity at 10 µM in test [7] (setting [10]) turned out to be 119%; in test [8] (setting [10]), 88%.

For the compound `Fc1ccc(CCNc2ncnc3ccc(F)cc23)cc1` [5as, 6-Fluoro-N-[2-(4-Fluorophenyl)Ethyl]-4-Quinazolinamine], the remaining activity at 10 µM in test [1] (setting [11]) worked out at 86%; in test [2] (setting [11]) it was 104%; in test [3] (setting [11]) it was 86%; in test [4] (setting [11]), 100%; in test [5] (setting [11]), 100%; in test [6] (setting [11]), 103%. The remaining activity at 10 µM worked out at 111% in test [7] (setting [11]) and 98% in test [8] (setting [11]).

With `Fc1ccc(CNc2ncnc3ccc(F)cc23)cc1` [5aa, 6-Fluoro-N-(4-fluorobenzyl)-4-Quinazolinamine], the remaining activity at 10 µM in test [1] (setting [12]) is 95%; in test [2] (setting [12]) it was 111%; in test [3] (setting [12]) it was 82%; in test [4] (setting [12]), 75%; in test [5] (setting [12]) it was 94%; in test [6] (setting [12]) it was 98%. Also, the remaining activity at 10 µM in test [7] (setting [12]) turned out to be 94%; in test [8] (setting [12]) it was 86%.
